From patent US9630949B2, “Oxoazetidine derivatives, process for the preparation thereof and use thereof in human medicine and in cosmetics” (GALDERMA RESEARCH & DEVELOPMENT, priority 2008, dated 2017)

Tests used:
[1] = molecular target: hMC1R (Homo sapiens (Human), UniProt Q01726); assay: Transactivation test: melanocortin receptors (pCRE-Luc luciferase reporter), hMC1R; assay type: cell-based; settings: HEK293 transfected with pCRE-Luc and hMC1R; products tested alone (agonist), 6 h incubation; % activity vs NDP-MSH 10 nM; IA: inactive
Chain of hMC1R (Q01726 whole entry): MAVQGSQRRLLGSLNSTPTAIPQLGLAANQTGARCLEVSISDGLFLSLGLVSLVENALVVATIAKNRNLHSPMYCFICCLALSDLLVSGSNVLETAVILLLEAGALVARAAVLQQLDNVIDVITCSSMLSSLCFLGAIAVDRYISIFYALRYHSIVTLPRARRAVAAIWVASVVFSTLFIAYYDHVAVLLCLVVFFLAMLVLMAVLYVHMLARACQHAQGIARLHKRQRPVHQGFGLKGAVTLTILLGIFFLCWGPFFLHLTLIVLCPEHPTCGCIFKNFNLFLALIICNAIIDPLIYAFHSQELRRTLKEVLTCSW
Method: (§1) Transactivation Test: Melanocortin Receptors
(§2) HEK293 lines are transfected with the pCRE-Luc and hMC1R, hMC3R, hMC4R or hMC5R vectors. The cells are cultured at 37° C., 5% CO2, in DMEM medium supplemented with 10% of foetal calf serum.
(§3) In the presence of an activator (agonist), the melanocortin receptor will activate the cAMP pathway which, via the CRE-Luc vector, will result in the synthesis of luciferase. After the addition of a lysis buffer containing a luminescent substrate for luciferase, it will be possible to measure the luminescence proportional to the degree of activation or of inhibition of the receptor.
(§4) The products are solubilized at 10 mM in DMSO. They are tested in the form of dose-response at a final DMSO concentration of 0.1%. The range comprising 10 points and one zero begins at 10 μM with 4-fold dilutions. For testing agonists, the products are tested alone. For determining the behaviour of antagonists, the products of interest are tested in the presence of 1 nM NDP-MSH (reference agonist). The cells are seeded at a rate of 5000 cells per well (384 well plate) in serum-free DMEM medium, and incubated overnight at 37° C., 5% CO2.
(§5) The products and the reference ligand (NDP-MSH) are added the following day, and the plates are again incubated for 6 h at 37° C., 5% CO2. After the addition of lysis buffer containing luciferin, the plates are read on a Top-Count instrument. The results are standardized as % activity using the 100% (cells+NDP-MSH at 10 nM) and 0% (cells alone) controls. An EC50 is calculated for each product using the XLFit software. The results are given in nM.

[2] = molecular target: hMC4R (Homo sapiens (Human), UniProt P32245); assay: Transactivation test: melanocortin receptors (pCRE-Luc luciferase reporter), hMC4R; assay type: cell-based; settings: HEK293 transfected with pCRE-Luc and hMC4R; products tested alone (agonist), 6 h incubation; % activity vs NDP-MSH 10 nM; IA: inactive
Chain of hMC4R (P32245 whole entry): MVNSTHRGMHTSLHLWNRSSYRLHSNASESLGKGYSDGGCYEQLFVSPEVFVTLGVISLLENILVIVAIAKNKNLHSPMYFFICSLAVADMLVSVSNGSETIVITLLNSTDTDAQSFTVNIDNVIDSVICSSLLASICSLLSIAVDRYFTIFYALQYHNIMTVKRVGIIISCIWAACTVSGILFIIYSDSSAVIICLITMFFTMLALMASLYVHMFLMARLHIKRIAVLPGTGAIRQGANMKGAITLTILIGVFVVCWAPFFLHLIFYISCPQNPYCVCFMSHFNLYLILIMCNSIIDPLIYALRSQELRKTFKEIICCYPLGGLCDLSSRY
Method: as §1, §2, §3, §4, §5

Row | SMILES | EC50 [1] | EC50 [2]
1 | CCCCOC1(c2ccccc2C)CN(C(=O)[C@@H](Cc2ccc(OC)cc2)NC(=O)C=Cc2c[nH]cn2)C1 [Compound 48, N-[(R)-2-(3-butoxy-3-o-tolylazetidin-1-yl)-1-(4-methoxybenzyl)-2-oxoethyl]-3-(1H-imidazol-4-yl)acrylamide] | 4000 nM | 500 nM
2 | CCCCCC1(c2ccccc2)CN(C(=O)[C@@H](Cc2cccc(C(F)(F)F)c2)NC(=O)CCc2c[nH]cn2)C1 [Compound 50, N-[(R)-2-oxo-2-(3-pentyl-3-phenylazetidin-1-yl)-1-(3-trifluoromethylbenzyl)ethyl]-3-(1H-imidazol-4-yl)propionamide] | 1000 nM | 500 nM
3 | CCCCCC1(c2ccccc2)CN(C(=O)[C@@H](Cc2ccc(Cl)c(Cl)c2)NC(=O)CCc2c[nH]cn2)C1 [Compound 52, N-[(R)-1-(3,4-dichlorobenzyl)-2-oxo-2-(3-pentyl-3-phenylazetidin-1-yl)ethyl]-3-(1H-imidazol-4-yl)propionamide] | 2000 nM | 250 nM
4 | CCCCCC1(c2ccccc2)CN(C(=O)[C@@H](Cc2ccc(F)c(F)c2)NC(=O)CCc2c[nH]cn2)C1 [Compound 53, N-[(R)-1-(3,4-difluorobenzyl)-2-oxo-2-(3-pentyl-3-phenylazetidin-1-yl)ethyl]-3-(1H-imidazol-4-yl)propionamide] | 1000 nM | 4000 nM
5 | CCCCCC1(c2ccccc2)CN(C(=O)[C@@H](Cc2cccc(F)c2)NC(=O)CCc2c[nH]cn2)C1 [Compound 56, N-[(R)-1-(3-fluorobenzyl)-2-oxo-2-(3-pentyl-3-phenylazetidin-1-yl)ethyl]-3-(1H-imidazol-4-yl)propionamide] | 4000 nM | 8000 nM
6 | CCCCCC1(c2ccccc2)CN(C(=O)[C@@H](Cc2ccccc2F)NC(=O)CCc2c[nH]cn2)C1 [Compound 57, N-[(R)-1-(2-fluorobenzyl)-2-oxo-2-(3-pentyl-3-phenylazetidin-1-yl)ethyl]-3-(1H-imidazol-4-yl)propionamide] | 1000 nM | 4000 nM
7 | CCCCCC1(c2ccccc2)CN(C(=O)[C@@H](Cc2ccc(Cl)cc2Cl)NC(=O)CCc2c[nH]cn2)C1 [Compound 58, N-[(R)-1-(2,4-dichlorobenzyl)-2-oxo-2-(3-pentyl-3-phenylazetidin-1-yl)ethyl]-3-(1H-imidazol-4-yl)propionamide] | 2000 nM | 500 nM
8 | CCCCOC1(c2ccccc2C)CN(C(=O)C(Cc2ccc(OC)cc2)NC(=O)CC(CC)c2c[nH]cn2)C1 (centres unmarked) [Compound 63, N-[2-(3-butoxy-3-o-tolylazetidin-1-yl)-1-(4-methoxybenzyl)-2-oxoethyl]-3-(1H-imidazol-4-yl)pentyramide] | 500 nM | 500 nM
9 | CCCCOC1(c2ccccc2C)CN(C(=O)[C@@H](Cc2ccc(OC)cc2)NC(=O)CCc2cncn2C)C1 [Compound 67, N-[(R)-2-(3-butoxy-3-o-tolylazetidin-1-yl)-1-(4-methoxybenzyl)-2-oxoethyl]-3-(3-methyl-3H-imidazol-4-yl)propionamide] | 500 nM | 500 nM
10 | CCCCOC1(c2ccccc2F)CN(C(=O)[C@@H](Cc2ccc(OC)cc2)NC(=O)CCc2c[nH]cn2)C1 [Compound 68, N-[(R)-2-[3-Butoxy-3-(2-fluorophenyl)azetidin-1-yl]-1-(4-methoxybenzyl)-2-oxoethyl]-3-(1H-imidazol-4-yl)propionamide] | 60 nM | 2000 nM
11 | CCCCOC1(c2ccccc2C)CN(C(=O)[C@@H](Cc2ccc(OC)cc2)NC(=O)CCc2cn(C)cn2)C1 [Compound 69, N-[(R)-2-(3-Butoxy-3-o-tolylazetidin-1-yl)-1-(4-methoxybenzyl)-2-oxoethyl]-3-(1-methyl-1H-imidazol-4-yl)propionamide] | 1000 nM | 8000 nM
12 | CCCCOC1(c2ccccc2C)CN(C(=O)[C@@H](Cc2ccc(OC)cc2)NC(=O)[C@@H](O)Cc2c[nH]cn2)C1 [Compound 71, (S)-N-[(R)-2-(3-Butoxy-3-o-tolylazetidin-1-yl)-1-(4-methoxybenzyl)-2-oxoethyl]-2-hydroxy-3-(1H-imidazol-4-yl)propionamide] | 60 nM | 4000 nM
13 | CCCCOC1(c2ccccc2C)CN(C(=O)C(NC(=O)CCc2c[nH]cn2)C(O)c2ccc(OC)cc2)C1 (centres unmarked) [Compound 73, N-[1-(3-Butoxy-3-o-tolylazetidine-1-carbonyl)-2-hydroxy-2-(4-methoxyphenyl)ethyl]-3-(1H-imidazol-4-yl)propionamide] | 500 nM | 8000 nM
14 | CCCCOC1(c2ccccc2C)CN(C(=O)[C@@H](Cc2ccc(OC)cc2)NC(=O)CC(O)c2c[nH]cn2)C1 (stereo partly drawn) [Compound 74, N-[(R)-2-(3-Butoxy-3-o-tolylazetidin-1-yl)-1-(4-methoxybenzyl)-2-oxoethyl]-3-hydroxy-3-(1H-imidazol-4-yl)propionamide] | 250 nM | 8000 nM

Other lines, results leading:

Row | EC50 [1] | EC50 [2] | SMILES
15 | 15 nM | 2000 nM | CCCCCC1(c2ccc(F)cc2F)CN(C(=O)[C@@H](Cc2ccc(OC)cc2)NC(=O)CCc2c[nH]cn2)C1 [Compound 49, N-[(R)-2-[3-(2,4-difluorophenyl)-3-pentylazetidin-1-yl]-1-(4-methoxybenzyl)-2-oxoethyl]-3-(1H-imidazol-4-yl)propionamide]
16 | 120 nM | 1000 nM | CCCCCC1(c2cccc(F)c2)CN(C(=O)[C@@H](Cc2ccc(OC)cc2)NC(=O)CCc2c[nH]cn2)C1 [Compound 55, N-[(R)-2-[3-(3-fluorophenyl)-3-pentylazetidin-1-yl]-1-(4-methoxybenzyl)-2-oxoethyl]-3-(1H-imidazol-4-yl)propionamide]
17 | 120 nM | 100 nM | CCCCCC1(c2cc(F)ccc2F)CN(C(=O)[C@@H](Cc2ccc(OC)cc2)NC(=O)CCc2c[nH]cn2)C1 [Compound 60, N-[(R)-2-[3-(2,5-difluorophenyl)-3-pentylazetidin-1-yl]-1-(4-methoxybenzyl)-2-oxoethyl]-3-(1H-imidazol-4-yl)propionamide]
18 | 120 nM | 100 nM | CCCCCC1(c2c(F)cccc2F)CN(C(=O)[C@@H](Cc2ccc(OC)cc2)NC(=O)CCc2c[nH]cn2)C1 [Compound 61, N-[(R)-2-[3-(2,6-difluorophenyl)-3-pentylazetidin-1-yl]-1-(4-methoxybenzyl)-2-oxoethyl]-3-(1H-imidazol-4-yl)propionamide]
19 | 2000 nM | 500 nM | CCCCCC1(c2ccccc2)CN(C(=O)[C@@H](Cc2ccc(OC)cc2)NC(=O)CCc2cncn2C)C1 [Compound 64, N-[(R)-1-(4-methoxybenzyl)-2-oxo-2-(3-pentyl-3-phenylazetidin-1-yl)ethyl]-3-(3-methyl-3H-imidazol-4-yl)propionamide]
20 | 250 nM | 250 nM | CCCCCC1(C2CCCCC2)CN(C(=O)[C@@H](Cc2ccc(OC)cc2)NC(=O)CCc2c[nH]cn2)C1 [Compound 66, N-[(R)-2-(3-cyclohexyl-3-pentylazetidin-1-yl)-1-(4-methoxybenzyl)-2-oxoethyl]-3-(1H-imidazol-4-yl)propionamide]
21 | 60 nM | 4000 nM | CC#CCC1(c2ccccc2C)CN(C(=O)[C@@H](Cc2ccc(OC)cc2)NC(=O)CCc2c[nH]cn2)C1 [Compound 75, N-[(R)-2-(3-But-2-ynyl-3-o-tolylazetidin-1-yl)-1-(4-methoxybenzyl)-2-oxoethyl]-3-(1H-imidazol-4-yl)propionamide]
22 | 30 nM | 4000 nM | CC#CCOC1(c2ccccc2C)CN(C(=O)[C@@H](Cc2ccc(OC)cc2)NC(=O)CCc2nc[nH]c2C)C1 [Compound 76, N-[(R)-2-(3-But-2-ynyloxy-3-o-tolylazetidin-1-yl)-1-(4-methoxybenzyl)-2-oxoethyl]-3-(5-methyl-1H-imidazol-4-yl)propionamide]
23 | 120 nM | 2000 nM | COc1ccc(C[C@@H](NC(=O)CCc2c[nH]cn2)C(=O)N2CC(OCC3CCCCC3)(c3ccccc3C)C2)cc1 [Compound 77, N-[(R)-2-(3-Cyclohexylmethoxy-3-o-tolylazetidin-1-yl)-1-(4-methoxybenzyl)-2-oxoethyl]-3-(1H-imidazol-4-yl)propionamide]
24 | 120 nM | 2000 nM | COc1ccc(C[C@@H](NC(=O)CCc2c[nH]cn2)C(=O)N2CC(OCCCC(F)(F)F)(c3ccccc3C)C2)cc1 [Compound 78]
25 | 15 nM | 1000 nM | COc1ccc(C[C@@H](NC(=O)CCc2nc[nH]c2C)C(=O)N2CC(OCC3CCC3)(c3ccccc3C)C2)cc1 [Compound 79, N-[(R)-2-(3-Cyclobutylmethoxy-3-o-tolylazetidin-1-yl)-1-(4-methoxybenzyl)-2-oxoethyl]-3-(5-methyl-1H-imidazol-4-yl)propionamide]
